For one test, the target named is PIK3CD (Human) (UniProt O00329). In words: Assessment of PI3KCD Kinase Activity.
For a further test, the target named is PIK3CG (human) (UniProt P48736). The experiment in a line: Assessment of PI3KCG Kinase Activity.

Some results are limits rather than exact numbers.

PIK3CD (Human), sequence (O00329 whole entry, looked up): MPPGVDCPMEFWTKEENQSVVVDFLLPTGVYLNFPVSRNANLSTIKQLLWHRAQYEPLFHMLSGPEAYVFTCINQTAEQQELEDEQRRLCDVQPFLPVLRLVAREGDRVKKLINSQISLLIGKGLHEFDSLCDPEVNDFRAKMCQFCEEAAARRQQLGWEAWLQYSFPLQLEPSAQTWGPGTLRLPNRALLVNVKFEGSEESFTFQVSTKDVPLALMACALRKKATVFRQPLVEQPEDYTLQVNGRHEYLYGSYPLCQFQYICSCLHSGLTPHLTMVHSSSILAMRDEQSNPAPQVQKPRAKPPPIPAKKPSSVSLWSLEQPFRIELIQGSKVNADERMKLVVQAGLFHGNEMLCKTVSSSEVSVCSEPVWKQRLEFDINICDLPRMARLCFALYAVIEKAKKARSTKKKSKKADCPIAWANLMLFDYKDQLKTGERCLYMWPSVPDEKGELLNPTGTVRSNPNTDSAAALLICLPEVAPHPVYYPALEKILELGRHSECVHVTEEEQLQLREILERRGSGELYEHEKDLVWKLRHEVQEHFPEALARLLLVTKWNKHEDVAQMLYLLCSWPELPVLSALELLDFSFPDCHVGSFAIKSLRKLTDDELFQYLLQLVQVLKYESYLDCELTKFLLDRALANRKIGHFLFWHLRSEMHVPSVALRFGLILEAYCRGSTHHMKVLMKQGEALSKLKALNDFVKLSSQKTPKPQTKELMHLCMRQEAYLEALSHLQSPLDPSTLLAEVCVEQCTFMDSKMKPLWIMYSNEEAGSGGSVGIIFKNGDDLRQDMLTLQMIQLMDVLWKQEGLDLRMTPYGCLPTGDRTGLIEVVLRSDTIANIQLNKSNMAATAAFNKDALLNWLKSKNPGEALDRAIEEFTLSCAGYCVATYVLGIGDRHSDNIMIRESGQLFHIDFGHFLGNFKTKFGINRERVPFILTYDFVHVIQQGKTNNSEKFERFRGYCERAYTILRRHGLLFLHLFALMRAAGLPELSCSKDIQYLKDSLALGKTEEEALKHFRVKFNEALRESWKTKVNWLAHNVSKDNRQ
PIK3CG (human), sequence (P48736 whole entry, looked up): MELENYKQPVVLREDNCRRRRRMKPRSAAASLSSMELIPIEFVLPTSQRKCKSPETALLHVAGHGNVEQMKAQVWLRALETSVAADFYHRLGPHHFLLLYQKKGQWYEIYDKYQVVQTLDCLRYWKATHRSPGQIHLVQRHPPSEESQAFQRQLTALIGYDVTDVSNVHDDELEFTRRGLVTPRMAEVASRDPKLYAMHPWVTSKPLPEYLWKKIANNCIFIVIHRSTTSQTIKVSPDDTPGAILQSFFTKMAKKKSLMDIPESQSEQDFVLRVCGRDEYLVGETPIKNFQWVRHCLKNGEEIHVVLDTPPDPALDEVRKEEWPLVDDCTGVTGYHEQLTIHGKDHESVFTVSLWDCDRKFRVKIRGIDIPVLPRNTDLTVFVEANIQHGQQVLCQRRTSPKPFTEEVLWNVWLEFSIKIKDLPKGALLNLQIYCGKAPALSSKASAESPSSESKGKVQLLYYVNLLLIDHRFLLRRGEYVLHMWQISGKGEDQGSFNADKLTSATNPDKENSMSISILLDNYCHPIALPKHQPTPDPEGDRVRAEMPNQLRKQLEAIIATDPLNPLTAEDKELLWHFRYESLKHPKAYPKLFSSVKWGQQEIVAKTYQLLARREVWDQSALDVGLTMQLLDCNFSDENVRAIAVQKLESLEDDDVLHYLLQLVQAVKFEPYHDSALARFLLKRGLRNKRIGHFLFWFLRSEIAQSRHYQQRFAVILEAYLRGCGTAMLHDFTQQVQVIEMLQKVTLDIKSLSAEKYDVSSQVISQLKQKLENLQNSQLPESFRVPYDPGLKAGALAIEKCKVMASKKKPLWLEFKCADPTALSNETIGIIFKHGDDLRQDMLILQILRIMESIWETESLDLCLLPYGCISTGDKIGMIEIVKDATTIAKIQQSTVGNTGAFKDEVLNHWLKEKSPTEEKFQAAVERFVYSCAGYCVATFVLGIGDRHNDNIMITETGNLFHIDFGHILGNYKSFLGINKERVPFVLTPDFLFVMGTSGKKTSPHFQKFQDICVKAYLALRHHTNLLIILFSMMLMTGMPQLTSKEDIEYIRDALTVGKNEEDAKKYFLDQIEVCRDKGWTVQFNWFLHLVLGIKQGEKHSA

For `Cc1ccccc1-n1c(Cn2nc(-c3ccc(O)c(Cl)c3)c3c(N)ncnc32)nc2scc(C)c2c1=O`, the IC50 on PIK3CD (Human) and against PIK3CG (human) was under 100 nM in each case.
As for `Cc1cccc2cc(Cn3nc(-c4ccc(O)c(Cl)c4)c4c(N)ncnc43)n(-c3ccccc3F)c(=O)c12`, the IC50 – broadly, the point on the concentration scale where inhibition reaches its midpoint – against PIK3CG (human) was under 100 nM.
Still for that read-out and setting: under `CC(=O)Nc1nc2ccc(-c3nn(Cc4cc5cccc(C)c5c(=O)n4-c4ccccc4C)c4ncnc(N)c34)cc2s1` stands under 100 nM.
With `Cc1ccccc1-n1c(Cn2nc(-c3cccc(O)c3)c3c(N)ncnc32)cc2nccc(C)c2c1=O`, the IC50 against PIK3CD (Human) and against PIK3CG (human) was under 100 nM in each case.
On PIK3CG (human), `Cc1csc2nc(Cn3nc(-c4ccc(O)c(F)c4)c4c(N)ncnc43)n(-c3ccccc3F)c(=O)c12` returned a concentration for half-maximal inhibition (IC50) of under 100 nM.
As for `Cc1ccccc1-n1c(Cn2nc(-c3cn[nH]c3)c3c(N)ncnc32)cc2cccc(C)c2c1=O`, the IC50 against PIK3CD (Human) and on PIK3CG (human) was under 100 nM throughout.
For the compound `Cc1cccc2cc(Cn3nc(I)c4c(N)ncnc43)n(C3CCCCC3)c(=O)c12`, at PIK3CG (human), the IC50 is under 100 nM.
With `Cc1cccc2cc(Cn3nc(-c4ccc(O)c(F)c4)c4c(N)ncnc43)n(-c3ccccc3F)c(=O)c12`, the IC50 at PIK3CG (human) is under 100 nM.
For `Cc1ccccc1-n1c(Cn2nc(-c3ccc(O)cc3)c3c(N)ncnc32)cc2cccc(C)c2c1=O`, the IC50 on PIK3CG (human) was under 100 nM.
Still for that read-out and setting: then `Cc1ccccc1-n1c(Cn2nc(-c3ccn[nH]3)c3c(N)ncnc32)cc2cccc(C)c2c1=O`, with under 100 nM.
`Cc1cccc2cc(Cn3nc(-c4cnn(CCO)c4)c4c(N)ncnc43)n(-c3ccccc3F)c(=O)c12`: at PIK3CD (Human), the IC50 is under 100 nM.
Compound `CCn1c(Cn2nc(-c3cccc(O)c3)c3c(N)ncnc32)cc2cccc(C)c2c1=O` came in with an IC50 against PIK3CD (Human) of under 100 nM.
The same measure, in the same setting: then `Cc1cccc2cc(Cn3nc(I)c4c(N)ncnc43)n(C(C)C)c(=O)c12`, with under 100 nM.
For the compound `Cc1csc2nc(Cn3nc(I)c4c(N)ncnc43)n(-c3ccccc3F)c(=O)c12`, the IC50 against PIK3CD (Human) is under 100 nM.
Still for that read-out and setting: under `Cc1ccccc1-n1c(Cn2nc(Br)c3c(N)ncnc32)nc2scc(C)c2c1=O` stands under 100 nM; under `COc1ccccc1-n1c(Cn2nc(Cl)c3c(N)ncnc32)nc2scc(C)c2c1=O`, under 100 nM.
Same read-out and setting: then `Cc1ccccc1-n1c(Cn2nc(-c3cccc(O)c3)c3c(N)ncnc32)nc2scc(C(F)(F)F)c2c1=O`, with under 100 nM; and `Cc1csc2nc(Cn3nc(Br)c4c(N)ncnc43)n(-c3ccccc3F)c(=O)c12`, with under 100 nM; and `Cc1csc2nc(Cn3nc(-c4cccc(O)c4)c4c(N)ncnc43)n(-c3ccccc3F)c(=O)c12`, with under 100 nM.
For the compound `CC(C)n1c(Cn2nc(-c3cc(O)cc(F)c3)c3c(N)ncnc32)cc2cccc(Cl)c2c1=O`, the IC50 on PIK3CD (Human) was under 100 nM.
The compound `Cc1csc2nc(Cn3nc(I)c4c(N)ncnc43)n(-c3ccccc3Cl)c(=O)c12` displayed an IC50 on PIK3CD (Human) of under 100 nM.
The same measure, in the same setting: under `CCc1ccccc1-n1c(Cn2nc(C#C[C@@H](C)O)c3c(N)ncnc32)nc2scc(C)c2c1=O` stands under 100 nM; under `Cc1csc2nc(Cn3nc(C#C[C@@H](C)O)c4c(N)ncnc43)n(-c3ccccc3C(F)(F)F)c(=O)c12`, under 100 nM.
Still for that read-out and setting: then `Cc1ccccc1-n1c(Cn2nc(Cl)c3c(N)ncnc32)nc2nccc(C)c2c1=O`, with under 100 nM.
`COc1cc(-c2nn(Cc3cc4cccc(C)c4c(=O)n3-c3ccccc3C)c3ncnc(N)c23)ccc1Cl` displayed an IC50 against PIK3CG (human) of under 100 nM.
Still for that read-out and setting: under `COc1ccc(-c2nn(Cc3cc4cccc(C)c4c(=O)n3-c3ccccc3C)c3ncnc(N)c23)cc1OC` stands under 100 nM.
With `Cc1ccccc1-n1c(Cn2nc(C#C[C@@H](C)O)c3c(N)ncnc32)cc2nccc(C)c2c1=O`, the IC50 on PIK3CD (Human) was under 100 nM.
`Cc1ccccc1-n1c(Cn2nc(-c3cccc(O)c3)c3c(N)ncnc32)cc2ccccc2c1=O`: the half-inhibitory concentration (IC50) against PIK3CD (Human) was under 100 nM.
Still for that read-out and setting: then `Cc1cccc2cc(Cn3nc(-c4cc(O)cc(F)c4)c4c(N)ncnc43)n(C3CCC3)c(=O)c12`, with under 100 nM; and `Cc1cccc2cc(Cn3nc(C#C[C@@H](C)O)c4c(N)ncnc43)n(-c3ccccc3Cl)c(=O)c12`, with under 100 nM.
On the same count and under the same terms, under `Cc1cccc2cc(Cn3nc(C#C[C@@H](C)O)c4c(N)ncnc43)n(-c3ccccc3O)c(=O)c12` stands under 100 nM.
Still for that read-out and setting: under `Cc1ccccc1-n1c(Cn2nc(Br)c3c(N)ncnc32)nc2scc(C(F)(F)F)c2c1=O` stands under 100 nM.
`Cc1cccc2cc(Cn3nc(C#C[C@@H](C)O)c4c(N)ncnc43)n(C3CCCC3)c(=O)c12` had an IC50 on PIK3CD (Human) of under 100 nM.
For the compound `COc1ccc(-c2nn(Cc3cc4cccc(C)c4c(=O)n3-c3ccccc3C)c3ncnc(N)c23)cc1`, the IC50 at PIK3CG (human) was under 100 nM.
At PIK3CD (Human), `Cc1cccc2cc(Cn3nc(-c4cccc(O)c4)c4c(N)ncnc43)n(C3CCCCC3)c(=O)c12` gave an IC50 of under 100 nM.
Same read-out and setting: under `Cc1cccc2cc(Cn3nc(C#CCO)c4c(N)ncnc43)n(-c3ccccc3F)c(=O)c12` stands under 100 nM; under `Cc1ccncc1-n1c(Cn2nc(I)c3c(N)ncnc32)cc2cccc(C)c2c1=O`, under 100 nM.
Still for that read-out and setting: then `Cc1cccc2cc(Cn3nc(-c4cccc(O)c4)c4c(N)ncnc43)n(C)c(=O)c12`, with under 100 nM; and `C=Cc1nn(Cc2cc3cccc(C)c3c(=O)n2-c2ccccc2C)c2ncnc(N)c12`, with under 100 nM; and `Cc1csc2nc(Cn3nc(-c4cc(O)cc(F)c4)c4c(N)ncnc43)n(-c3ccccc3Cl)c(=O)c12`, with under 100 nM.
`CC(C)n1c(Cn2nc(-c3cc(O)cc(F)c3)c3c(N)ncnc32)cc2ccccc2c1=O` showed a half-maximal inhibitory concentration (IC50) against PIK3CD (Human) of under 100 nM.
On PIK3CD (Human), `Cc1cccc2cc(Cn3nc(-c4cc(O)cc(F)c4)c4c(N)ncnc43)n(C3CCOCC3)c(=O)c12` gave an IC50 of under 100 nM.
Same read-out and setting: under `Cc1ccccc1-n1c(Cn2nc(-c3cc(O)cc(F)c3)c3c(N)ncnc32)nc2sc(C)c(C)c2c1=O` stands under 100 nM; under `Cc1ccccc1-n1c(Cn2nc(-c3cccc(O)c3)c3c(N)nccc32)cc2cccc(C)c2c1=O`, under 100 nM; under `COc1ccccc1-n1c(Cn2nc(-c3cccc(O)c3)c3c(N)ncnc32)nc2scc(C)c2c1=O`, under 100 nM.
Same read-out and setting: then `Cc1ccccc1-n1c(Cn2nc(-c3cc(O)cc(F)c3)c3c(N)ncnc32)nc2cnn(C)c2c1=O`, with under 100 nM; and `Cc1cccnc1-n1c(Cn2nc(-c3cccc(O)c3)c3c(N)ncnc32)cc2cccc(C)c2c1=O`, with under 100 nM.
The same measure, in the same setting: under `Cc1ccccc1-n1c(Cn2nc(C#C[C@@H](C)O)c3c(N)ncnc32)cc2cccc(C)c2c1=O` stands under 100 nM; under `COc1ccccc1-n1c(Cn2nc(Br)c3c(N)ncnc32)nc2scc(C)c2c1=O`, under 100 nM.
Regarding `CC(C)n1c(Cn2nc(-c3cc(O)cc(F)c3)c3c(N)ncnc32)cc2cccc(F)c2c1=O`, the IC50 against PIK3CD (Human) was under 100 nM.
The compound `Cc1ccccc1-n1c(Cn2nc(I)c3c(N)ncnc32)cc2ccccc2c1=O` had an IC50 at PIK3CG (human) of under 100 nM.
On to `Cc1cccc2cc(Cn3nc(-c4cc(O)cc(F)c4)c4c(N)ncnc43)n(-c3ccccc3OCCN3CCOCC3)c(=O)c12`, for which, on PIK3CD (Human), the half-maximal inhibitory concentration (IC50) was under 100 nM.
Still for that read-out and setting: then `Cc1ccccc1-n1c(Cn2nc(I)c3c(N)nccc32)cc2cccc(C)c2c1=O`, with under 100 nM; and `Cc1cccc2cc(Cn3nc(C#C[C@@H](C)O)c4c(N)ncnc43)n(C3CC3)c(=O)c12`, with under 100 nM.
Still for that read-out and setting: under `Cc1ccccc1-n1c(Cn2nc(-c3cc(O)cc(F)c3)c3c(N)nccc32)cc2cccc(C)c2c1=O` stands under 100 nM; under `CC(C)n1c(Cn2nc(-c3cccc(O)c3)c3c(N)ncnc32)cc2cccc(Cl)c2c1=O`, under 100 nM.

The values above are taken from the Kinase Knowledgebase extract (Sharma et al. 2016).
